According to patent US20140001056A1 (priority 2011, published 2014):
pKd: −log10 of the molar value. Several values for one entry are separate records, joined by “and”; a condition that tells them apart may be missing. Equal entries are not always repeated. Where two headings read alike, the source gives them in different places.

Tests used:
α-HL monomer = α-HL monomer (Staphylococcus aureus, UniProt P09616)
α-HL heptamer = α-HL heptamer (Staphylococcus aureus, UniProt P09616)
WT-Kcv = WT-Kcv (Paramecium bursaria Chlorella virus 1, UniProt Q84568)
WT-α-HL pore [1] = biological target: T1, WT-α-HL pore (Staphylococcus aureus, UniProt P09616); type: binding
MspA (NNNRRK mutant) = MspA (NNNRRK mutant) (Mycolicibacterium smegmatis, UniProt A0QR29, D117N/D118N/D120N/D145R/D161R/E166K)
WT-α-HL pore [2] = biological target: T1, WT-α-HL pore; conditions: cited from earlier work

T1 sequence (P09616 27-319 limits assumed): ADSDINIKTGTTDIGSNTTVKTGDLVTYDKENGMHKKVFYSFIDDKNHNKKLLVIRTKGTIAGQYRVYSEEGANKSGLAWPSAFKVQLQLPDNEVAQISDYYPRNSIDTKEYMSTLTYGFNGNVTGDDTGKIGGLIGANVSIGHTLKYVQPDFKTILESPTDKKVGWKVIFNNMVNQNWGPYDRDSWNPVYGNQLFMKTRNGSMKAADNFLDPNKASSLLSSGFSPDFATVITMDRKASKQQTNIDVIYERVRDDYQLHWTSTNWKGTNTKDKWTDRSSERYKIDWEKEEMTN
Sequence of α-HL heptamer (P09616 27-319 limits assumed): as above
Sequence of α-HL monomer (P09616 27-319 limits assumed): as above
Sequence of WT-Kcv (Q84568 whole entry, looked up): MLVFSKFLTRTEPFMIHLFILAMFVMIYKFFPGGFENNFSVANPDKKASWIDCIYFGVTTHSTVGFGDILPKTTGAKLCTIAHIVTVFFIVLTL
Sequence of MspA (NNNRRK mutant) (A0QR29 28-211 D117N/D118N/D120N/D145R/D161R/E166K limits assumed): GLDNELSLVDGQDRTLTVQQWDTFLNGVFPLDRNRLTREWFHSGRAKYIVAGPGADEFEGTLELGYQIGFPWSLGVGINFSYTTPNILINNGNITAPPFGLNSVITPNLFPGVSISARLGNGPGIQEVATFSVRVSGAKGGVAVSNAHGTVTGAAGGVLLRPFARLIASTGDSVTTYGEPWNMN

C6F13C2H4—S-poly[tris(hydroxymethyl)aminomethane] [F6TAC]
Initial rate of release of dye (α-HL monomer): 6.5 % min^−1 | Lag time before initiation of release (α-HL monomer): 7.5 min | Initial rate of release of dye (α-HL heptamer): 16 % min^−1 | Lag time before initiation of release (α-HL heptamer): 4.8 min

Fluorinated fos-choline [F6FC]
Percent release of dye at end point (α-HL monomer): 0.2% and 0.3% | blockades or gating changes of Kcv channels already inserted (WT-Kcv): did not cause blockades or changes in the gating | insertion of Kcv channels into planar lipid bilayer (WT-Kcv): No openings are seen | single-channel IV curve of Kcv (WT-Kcv): unchanged | Lag time before initiation of release (α-HL heptamer): 2.8 min and 4.3 min | gα-HL, unitary conductance in the absence of βCD (WT-α-HL pore [1]; pH 7.5): 650 ± 3 pS and 721 ± 4 pS | blockades or gating changes of MspA pores already inserted (MspA (NNNRRK mutant)): did not cause blockades or changes in the gating | insertion of MspA pores into planar lipid bilayer (MspA (NNNRRK mutant)): No further insertion events occur

Fluorinated octyl maltoside [F6OM]
Initial rate of release of dye (α-HL monomer): 4 % min^−1 | Lag time before initiation of release (α-HL monomer): 4.4 min | Initial rate of release of dye (α-HL heptamer): 16 % min^−1 | Lag time before initiation of release (α-HL heptamer): 1.8 min

β-cyclodextrin [βCD]
pKd (WT-α-HL pore [1]): 2.27 and 2.02 | gα-HL·βCD, unitary conductance with βCD bound (WT-α-HL pore [1]): 257 ± 3 pS and 232 ± 4 pS | koff (WT-α-HL pore [1]): 1.7 ± 0.1 × 10^3 s^−1 and 2.4 ± 0.3 × 10^3 s^−1 | kon (WT-α-HL pore [1]): 3.1 ± 0.1 × 10^5 M^−1s^−1 and 2.5 ± 0.4 × 10^5 M^−1s^−1 | gα-HL·βCD, unitary conductance with βCD bound (WT-α-HL pore [2]): 253 ± 4 pS and 240 ± 3 pS | koff (WT-α-HL pore [2]): 2.1 ± 0.2 × 10^3 s^−1 and 1.3 ± 0.1 × 10^3 s^−1 | kon (WT-α-HL pore [2]): 2.8 ± 0.2 × 10^5 M^−1s^−1 and 4.0 ± 0.3 × 10^5 M^−1s^−1
